Measured values from PMC6594753, “Cystic fibrosis drug ivacaftor stimulates CFTR channels at picomolar concentrations” (eLife, 2019).
Several values for one entry are separate records, joined by “and”; a condition that tells them apart may be missing. Equal values may be shown once. Read-outs that look alike come from different tables or passages of the source.

How the values were obtained:
WT CFTR = target: T1, WT CFTR (Homo sapiens, UniProt P13569); test: Ensemble fitting of gating models (Schemes 3 and 4) to on-off current time courses; format: biochemical; settings: for EC50 / Kd: calculated from fit parameters; for kin: constrained kin/kout = 62580; for Kd: read-out: Kd;mem
T1 construct: expressed in transfected cells; host or cells: Xenopus laevis oocytes injected with cRNA transcribed from pGEMHE-CFTR
T1 sequence (P13569 whole entry): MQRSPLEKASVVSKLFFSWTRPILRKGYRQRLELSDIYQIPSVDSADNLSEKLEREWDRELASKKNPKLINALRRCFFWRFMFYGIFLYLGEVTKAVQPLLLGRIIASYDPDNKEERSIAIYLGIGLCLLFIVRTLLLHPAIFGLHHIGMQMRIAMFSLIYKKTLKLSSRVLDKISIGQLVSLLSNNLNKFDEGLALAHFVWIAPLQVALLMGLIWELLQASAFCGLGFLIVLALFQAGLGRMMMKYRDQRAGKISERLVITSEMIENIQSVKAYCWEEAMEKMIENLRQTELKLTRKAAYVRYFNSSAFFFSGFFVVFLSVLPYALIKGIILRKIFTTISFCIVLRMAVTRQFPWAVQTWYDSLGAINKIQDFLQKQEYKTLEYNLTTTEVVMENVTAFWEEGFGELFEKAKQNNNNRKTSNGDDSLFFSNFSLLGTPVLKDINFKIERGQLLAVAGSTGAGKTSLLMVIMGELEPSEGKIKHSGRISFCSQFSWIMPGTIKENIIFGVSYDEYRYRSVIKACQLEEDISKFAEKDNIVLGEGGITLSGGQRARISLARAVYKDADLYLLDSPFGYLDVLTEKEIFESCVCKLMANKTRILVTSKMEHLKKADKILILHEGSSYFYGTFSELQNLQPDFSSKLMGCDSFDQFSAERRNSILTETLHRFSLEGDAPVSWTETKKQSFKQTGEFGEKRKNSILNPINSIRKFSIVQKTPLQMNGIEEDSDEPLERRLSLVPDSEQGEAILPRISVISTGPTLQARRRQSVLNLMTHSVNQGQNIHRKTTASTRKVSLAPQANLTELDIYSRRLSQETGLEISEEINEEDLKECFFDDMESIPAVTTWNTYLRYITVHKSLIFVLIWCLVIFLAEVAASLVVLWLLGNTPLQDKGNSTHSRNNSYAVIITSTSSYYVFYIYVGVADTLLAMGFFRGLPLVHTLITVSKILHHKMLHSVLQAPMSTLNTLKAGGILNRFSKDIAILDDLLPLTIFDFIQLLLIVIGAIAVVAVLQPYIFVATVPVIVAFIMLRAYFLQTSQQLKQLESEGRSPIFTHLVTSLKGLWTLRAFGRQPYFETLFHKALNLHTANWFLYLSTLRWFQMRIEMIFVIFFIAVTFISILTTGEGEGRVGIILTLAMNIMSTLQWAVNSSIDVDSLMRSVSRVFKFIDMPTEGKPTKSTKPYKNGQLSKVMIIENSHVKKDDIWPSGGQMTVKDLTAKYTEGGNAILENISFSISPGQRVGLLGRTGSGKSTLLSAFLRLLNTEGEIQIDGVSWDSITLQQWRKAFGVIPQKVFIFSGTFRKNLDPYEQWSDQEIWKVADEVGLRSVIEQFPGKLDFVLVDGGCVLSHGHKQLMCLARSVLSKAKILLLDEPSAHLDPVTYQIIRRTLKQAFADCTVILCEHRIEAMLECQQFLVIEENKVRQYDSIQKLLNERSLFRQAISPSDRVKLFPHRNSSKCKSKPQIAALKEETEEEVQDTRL
Excerpt: We next attempted to interpret the observed complex kinetics of the drug effects in terms of various molecular models (Figure 5a–d), by performing global fits of each model (Figure 5f, colored lines) to the ensemble of four experimentally observed current time courses: activation and deactivation upon addition and removal of 0.01x saturated (Figure 5f, gray trace) and 1x saturated (Figure 5f, black trace) Vx-770.
An alternative mechanism that could explain delayed activation by the drug is the presence of multiple drug binding sites, all of which must be occupied to switch the channel to a high open probability state. […] We therefore evaluated a simplistic model which postulates independent drug binding to two sites, with identical affinities, but a substantial change in open probability (from Po;bas to Po;max) only for diliganded channels (Scheme 3, Figure 5c).
Finally, assuming a two-compartment membrane and two drug-binding sites, both accessible from the outer leaflet (Scheme 4, Figure 5d), afforded a further small improvement (Figure 5f, red fit lines) relative to Scheme 3, albeit at the expense of an extra free parameter (Figure 5e, right).
The dynamic equations that describe the kinetic models depicted in Figure 5 are as follows:
• dx1(t)/dt = kin⋅Vc – 2⋅kout⋅x1(t) – kon'⋅(2⋅x2(t)+x3(t))⋅x1(t) + koff⋅(2⋅(Ct–x2(t)–x3(t))+x3(t)) • dx2(t)/dt = – 2⋅kon'⋅x1(t)⋅x2(t) + koff⋅x3(t) • dx3(t)/dt = 2⋅kon'⋅x1(t)⋅x2(t) + 2⋅koff⋅(Ct–x2(t)–x3(t)) – (koff +kon'⋅x1(t))⋅x3(t)
(§1) where x1(t) is the concentration of free Vx-770 in the membrane, x2(t) is the concentration of unliganded CFTR channels in the membrane, x3(t) is the concentration of monoliganded CFTR channels in the membrane, Ct is the total concentration of CFTR channels in the membrane, and Vc is the concentration of Vx-770 in the cytosol.
• dx1(t)/dt = kin⋅Vc – (kout +kflip)⋅x1(t) + kflip⋅x2(t) • dx2(t)/dt = kflip⋅x1(t) – (kout +kflip)⋅x2(t) – kon'⋅(2⋅x3(t)+x4(t))⋅x2(t) + koff⋅(2⋅(Ct–x3(t)–x4(t))+x4(t)) • dx3(t)/dt = – 2⋅kon'⋅x2(t)⋅x3(t) + koff⋅x4(t) • dx4(t)/dt = 2⋅kon'⋅x2(t)⋅x3(t) + 2⋅koff⋅(Ct–x3(t)–x4(t)) – (koff +kon'⋅x2(t))⋅x4(t)
as §1, with “x1(t) is the concentration of Vx-770 in the inner membrane leaflet, x2(t)” for “x1(t)”, “outer membrane leaflet, x3(t)” for “membrane, x2(t)”, “outer membrane leaflet, x4(t)” for “membrane, x3(t)”, “outer membrane leaflet,” for “membrane,”
To calculate the value of Ct, the total number of channels in the patch (N) was estimated by assuming Po;bas=0.16 for prephosphorylated channels in ATP (cf., Figure 2c). For Schemes 1 and 3 the volume of the membrane patch was taken as 10^−16 liter (assuming a macroscopic patch surface area of ~4 μm^2 increased by ~5 fold at a microscopic level due to the presence of microvilli ([Dascal, 1987]), and a membrane thickness of ~5 nm), and for Schemes 2 and 4 the volume of the outer membrane leaflet was taken as 5⋅10^−17 liter. Ct was then calculated as N/NA divided by the relevant volume (NA, Avogadro's number).
For the ensemble fitting, all experimental current traces were normalized to their steady-state values observed prior to exposure to Vx-770. Predicted normalized on- and off- current time courses for each model were calculated from the above dynamic equations by solving for the time-dependent evolution of the vector x, using a modified Euler's method ([Press, 1992]). For the on- time courses the initial values for all xi were set to zero, for the off- time courses the final x vector of the preceding on- time course served as the initial vector while Vc was set to zero. […]

[1] = Octanol/water distribution coefficient from solubilities; format: physicochemical; settings: pH=7.1
[2] = Scheme 3, average of global fits to three pairs of time courses
[3] = Scheme 4, average of global fits to three pairs of time courses

- EC50 (WT CFTR; Scheme 3, Figure 5f data set, read-out: K0.5;aq): 0.74 nM
- kin (WT CFTR; Scheme 3, average (mean ± S.E.M.) of global fits to three pairs of time courses): 4034 ± 464 s⁻¹
- Po;max/Po;bas (WT CFTR; [2]): 3.935 ± 0.001
- koff (WT CFTR; [2]): 0.00745 ± 0.000871 s⁻¹
- kon (WT CFTR; [2]): 870 ± 104 M⁻¹ s⁻¹
- kout (WT CFTR; [2]): 0.06446 ± 0.00742 s⁻¹
- EC50 (WT CFTR; Scheme 3, average of three fits, read-out: K0.5;aq): 0.675 ± 0.0895 nM
- EC50 (WT CFTR; Scheme 3, average of three fits, read-out: K0.5;mem): 21100 ± 2800 nM
- Kd (WT CFTR; Scheme 3, average of three fits): 8750 ± 1160 nM
- koff (WT CFTR; Scheme 3, global fit to data set of Figure 5f): 0.00651 s⁻¹
- EC50 (WT CFTR; Scheme 4, Figure 5f data set, read-out: K0.5;aq): 0.72 nM
- kin (WT CFTR; Scheme 4, average (mean ± S.E.M.) of global fits to three pairs of time courses): 9794 ± 531 s⁻¹
- Po;max/Po;bas (WT CFTR; [3]): 3.996 ± 0.007
- kflip (WT CFTR; [3]): 0.04408 ± 0.00583 s⁻¹
- koff (WT CFTR; [3]): 0.01075 ± 9e-05 s⁻¹
- kon (WT CFTR; [3]): 3700 ± 627 M⁻¹ s⁻¹
- kout (WT CFTR; [3]): 0.1565 ± 0.0085 s⁻¹
- EC50 (WT CFTR; Scheme 4, average of three fits, read-out: K0.5;aq): 0.669 ± 0.0955 nM
- EC50 (WT CFTR; Scheme 4, average of three fits, read-out: K0.5;mem): 7500 ± 1460 nM
- Kd (WT CFTR; Scheme 4, average of three fits): 3110 ± 605 nM
- koff (WT CFTR; Scheme 4, global fit to data set of Figure 5f): 0.0106 s⁻¹
- logD ([1]; octanol/water): 4.8
- octanol/water distribution coefficient Doct/wat [1]: 62580 and ~ 60000
SMILES: CC(C)(C)c1cc(C(C)(C)C)c(NC(=O)c2c[nH]c3ccccc3c2=O)cc1O [Vx-770, ivacaftor]
